Holding throughout (test): NCI tumour cell line growth inhibition, 48 h
For assay [1], the system named is DMS 273 small cell lung.
In assay [2] the test system is DMS 114 small cell lung.
Assay [3] relates to LXFL 529 NSCLC.
Assay [4] relates to XF 498 CNS.
Assay [5] deals with HOP-18 NSCLC.
The test system of assay [6] is SNB-78 CNS.
In assay [7] the test system is SN12K1 renal.
The subject of assay [8] is P388 leukemia.
Assay [9] concerns P388/ADR leukemia.
Assay [10] has as its system RXF-631 renal.

This note sets out measurements from PubChem BioAssay (NCI).

Values joined by “and” are separate entries in the source; they are usually repeats but may differ in a detail not shown here. Equal entries are not always repeated.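 Cultured in 96-well plates, cells were exposed to test compound for 48 hours across five concentrations. GI50 = concentration required for 50% inhibition of growth. TGI: concentration producing complete growth inhibition.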

With `N#CNC(N)=NCc1ccccc1`, the TGI in assay [1], in [2] and in assay [3] was above 100 µM each time.

As to `Cc1cc([N+](=O)[O-])c(C)c2c1[nH]c1ccc(Cl)cc12`, the TGI in [4], in [1], in assay [2], in assay [5] and in assay [6] was above 100 µM throughout.

As to `CN(C)CCNC(=O)c1cccc2c1Nc1ccccc1S2`, the TGI came to 25.3 µM in [4]; 29.3 µM in [1]; 20 µM in [2]; 24.4 µM in assay [5]; 20.7 µM in assay [7]; 6.23 µM in assay [8]. Besides, the TGI in [9] was found to be 9.51 µM; in assay [6] it was 27.7 µM.

For the compound `Cc1c2ccnc(C(N)=O)c2c(C)c2c1[nH]c1ccccc12`, the TGI in [4] is 19.8 µM and 26.4 µM; in [1] it was 23.7 µM and 16.7 µM; in [2] it was 47.3 µM and 47.6 µM; in assay [3], 26.9 µM; in assay [5], 46.5 µM and 47.3 µM; in assay [7], 19.1 µM. For the same compound, the TGI was 14 µM in assay [8]; 28.8 µM in [10]; 35.8 µM in assay [9]; 48.3 µM and > 100 µM in assay [6]. Moreover, the GI50 is 3.5 µM in assay [1], 6.72 µM in [2], 15 µM in [5] and 6.28 µM in assay [6].

Turning to `CN(C)c1nc(Oc2nc(N(C)C)nc(N(C)C)n2)nc(N(C)C)n1`, the TGI in assay [4], in [1], in assay [2], in assay [3], in [5] and in [6] was above 100 µM throughout.

Regarding `CSCC[C@@H](NC(=O)[C@H](CC(C)C)NC(=O)C(Cc1cnc[nH]1)NC(=O)CNC(=O)[C@@H](NC(=O)[C@H](C)NC(=O)[C@H](Cc1c[nH]c2ccccc12)NC(=O)[C@H](CCC(N)=O)NC(=O)[C@@H](N)CC(N)=O)C(C)C)C(N)=O` (some centres not stated), the TGI in assay [4], in assay [1], in assay [2], in [5], in assay [7] and in assay [8] was above 100 µM in each case. Further, the TGI in [9] and in assay [6] was above 100 µM in each case.

As to `CCOC(=O)C1C(c2ccc(Cl)cc2Cl)NC(c2ccc(C)cc2)C(C(=O)OC)S1(=O)=O` (configuration not stated), the TGI in assay [4], in assay [1], in [3] and in [6] was above 100 µM throughout.

Take `COc1cc2ccc3c4cc(OC)c(OC)cc4c[n+](C)c3c2cc1O`: the TGI is above 88.1 µM in [4]; above 100 µM in assay [1]; above 82.9 µM in [2]; above 100 µM in assay [3]; above 100 µM in assay [5]; above 100 µM in assay [6].

In the case of `COc1ccc(CNc2cnc3ccc(N)cc3n2)cc1`, the TGI in [4], in assay [1], in [2], in assay [5] and in [6] was above 100 µM each time.

In the case of `CCCCCCN(CCCCCC)C(=S)N/N=C(\C)c1ccccn1`, the TGI in [1] is 3.92 µM; in assay [2] it was 2.29 µM; in assay [3], 1.45 µM; in assay [10] it was 3.67 µM; in assay [6] it was 2.34 µM.

Consider `CCCCCCCC(=O)OCC(COC(=O)C(C)(C)C)OC(=O)Cc1ccccc1` (configuration not stated), for which the TGI in assay [1], in assay [2], in assay [3] and in [5] was above 100 µM throughout.

For `Cc1c(N2CCOCC2)nc2ccc(Cl)cc2c1-c1ccccc1`, the TGI in assay [1], in [2], in assay [3] and in [6] was above 100 µM in each case.

For `CC1=NN(C(=O)Cc2ccccc2)C(=O)/C1=C\c1ccc(O)cc1`, the TGI in assay [4], in [2], in assay [3] and in assay [6] was above 100 µM each time.

As for `COc1cc(C)c(CC/C(C)=C/Cc2cc(O)ccc2O)c(C)c1C`, the TGI in assay [4], in assay [1], in assay [2], in assay [3] and in [5] was above 25 µM throughout.

On to `CC(=O)NNc1nc(C)c(C(=O)NNC(=O)C(=O)Nc2ccc([N+](=O)[O-])cc2[N+](=O)[O-])s1`, for which the TGI in assay [4], in assay [1], in [2], in [3], in assay [10] and in [6] was above 100 µM each time.

Take `O=[N+]([O-])c1ccc(C[P+]2(c3ccccc3)CCCCC2)cc1`: the TGI in assay [1], in assay [2], in assay [3] and in assay [5] was above 100 µM in each case.

Take `C[C@]12CCC3[C@@H](CCC45OC4C(=O)CC[C@]35C)C1Cc1cnn(-c3ccc(F)cc3)c1N2` (some centres not stated): the TGI is above 100 µM in [4]; 38.9 µM in assay [1]; 50.5 µM in assay [2]; above 100 µM in assay [3]; above 100 µM in assay [5]; 79 µM in assay [6].
